Reference: patent US6984521B2, “HEK293 cell line for activity studies and HTS system of α1G T-type Ca2+ channel” (Korea Institute of Science and Technology, priority 2003, dated 2006)
Each block holds one compound with its values, some of them ahead of it.

Key:
[1] = target: T1, Kir2.1 (Homo sapiens, UniProt P63252); assay: Kir2.1 channel current, whole-cell patch-clamp; format: cell-based; settings: Kir2.1+α1G HEK293 cell; -140 to -60 mV step pulse; 1-100 μM Ba2+, 5-500 μM Cs+
T1 construct: expressed in transfected cells; host or cells: HEK293 cells stably expressing α1G T-type calcium channel, transduced with Kir2.1-pMSCVpuro retrovirus (Kir2.1+α1G HEK293)
T1 sequence (P63252 1-427): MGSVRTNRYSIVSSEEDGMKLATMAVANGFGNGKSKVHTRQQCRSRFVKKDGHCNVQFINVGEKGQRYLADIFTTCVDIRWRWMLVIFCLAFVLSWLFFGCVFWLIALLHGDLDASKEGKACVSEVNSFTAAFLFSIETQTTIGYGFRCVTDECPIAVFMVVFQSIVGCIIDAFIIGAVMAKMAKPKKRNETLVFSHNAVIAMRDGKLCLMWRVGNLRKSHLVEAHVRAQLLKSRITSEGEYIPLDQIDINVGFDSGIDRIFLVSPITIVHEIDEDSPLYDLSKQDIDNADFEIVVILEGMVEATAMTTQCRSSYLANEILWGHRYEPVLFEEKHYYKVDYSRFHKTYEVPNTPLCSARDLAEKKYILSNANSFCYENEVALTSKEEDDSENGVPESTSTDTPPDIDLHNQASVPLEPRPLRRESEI
Experimental: Further, the current of IRK-type potassium channel, Kir2.1 was also determined in a single cell level by the whole-cell patch-clamp method. An extracellular solution for determining IRK-type potassium channel activity comprised NaCl 135 mM, KCl 5.4 mM, CaCl2 1.8 mM, MgCl2 1 mM, HEPES 5 mM and glucose 10 mM (pH 7.4). An intracellular solution comprised D-gluconic acid (potassium salt form) 140 mM, MgCl2 2 mM, EGTA 1 mM, HEPES 5 mM and Na2ATP 1 mM (pH 7.4).
After the cell membrane voltage was fixed as about −60 mV in a whole-cell recording mode, −140 to −60 mV of 200 ms step pulse was applied to determine the inward current induced by potassium inwardly-rectifying channel activation of HEK293 cell.
Furthermore, the characteristics of Kir2.1 channel were analyzed by comparing with IC50 value for Ba^2+ and Cs^+, the conventionally known IRK-type potassium channel inhibitor. For this, Kir2.1 channel activity determination method, as discussed above, was used and the inhibition by the known Kir2.1 inhibitor, Ba^2+ and Cs^+, was observed.
FIG. 4e and FIG. 4f are graphs showing the maximum current that occurred at each voltage when 1–100 μM Ba^2+ and 5–500 μM Cs^+ known as Kir2.1 inhibitor were administered to Kir2.1+α1G HEK293 cell under −140 to −60 mV step pulse.

[2] = tested on: Kir2.1+α1G HEK293 cell; assay: Intracellular calcium with fura-2/AM, cell line of the invention; format: cell-based, human; settings: 70 mM KCl
Experimental: (§1) The calcium concentration in the cell was determined by using fura-2/AM as a fluorescent Ca^2+ label. The cells were primarily incubated with 5 μM fura-2/AM and 0.001% Pluronic F-127 in HEPES buffer solution (150 mM NaCl, 5 mM KCl, 1 mM MgCl2, 2 mM CaCl2, 10 mM HEPES, 10 mM glucose, pH 7.4) at a room temperature for about 40 to 60 minutes and then washed several times with HEPES buffer solution. After stablilzing the cells for about 10 minutes, the cells were selectively exposed to 340 nm and 380 nm by using an inverted microscope. Thereafter, the emitter fluorescence light that was entered through 515 nm long-pass filter was passed through a cooled CCD […]. The light was converted into the intracellular calcium concentration by digital fluorescence analyzer to determine the calcium concentration.

[3] = tested on: α1G HEK293 cell; assay: Intracellular calcium with fura-2/AM, control cell; format: cell-based, human; settings: 70 mM KCl
Experimental: as §1

[4] = target: T2, α1G T-type calcium channel (Rattus norvegicus, UniProt O54898); assay: T-type calcium channel current, whole-cell patch-clamp; format: cell-based; settings: activated at about -30 mV; Ni2+ 1 μM to 1 mM, mibefradil 0.1 to 10 μM
T2 construct: expressed in transfected cells; host or cells: HEK293 stably expressing α1G (α1G HEK293, control) and Kir2.1+α1G HEK293
T2 sequence (O54898 whole entry): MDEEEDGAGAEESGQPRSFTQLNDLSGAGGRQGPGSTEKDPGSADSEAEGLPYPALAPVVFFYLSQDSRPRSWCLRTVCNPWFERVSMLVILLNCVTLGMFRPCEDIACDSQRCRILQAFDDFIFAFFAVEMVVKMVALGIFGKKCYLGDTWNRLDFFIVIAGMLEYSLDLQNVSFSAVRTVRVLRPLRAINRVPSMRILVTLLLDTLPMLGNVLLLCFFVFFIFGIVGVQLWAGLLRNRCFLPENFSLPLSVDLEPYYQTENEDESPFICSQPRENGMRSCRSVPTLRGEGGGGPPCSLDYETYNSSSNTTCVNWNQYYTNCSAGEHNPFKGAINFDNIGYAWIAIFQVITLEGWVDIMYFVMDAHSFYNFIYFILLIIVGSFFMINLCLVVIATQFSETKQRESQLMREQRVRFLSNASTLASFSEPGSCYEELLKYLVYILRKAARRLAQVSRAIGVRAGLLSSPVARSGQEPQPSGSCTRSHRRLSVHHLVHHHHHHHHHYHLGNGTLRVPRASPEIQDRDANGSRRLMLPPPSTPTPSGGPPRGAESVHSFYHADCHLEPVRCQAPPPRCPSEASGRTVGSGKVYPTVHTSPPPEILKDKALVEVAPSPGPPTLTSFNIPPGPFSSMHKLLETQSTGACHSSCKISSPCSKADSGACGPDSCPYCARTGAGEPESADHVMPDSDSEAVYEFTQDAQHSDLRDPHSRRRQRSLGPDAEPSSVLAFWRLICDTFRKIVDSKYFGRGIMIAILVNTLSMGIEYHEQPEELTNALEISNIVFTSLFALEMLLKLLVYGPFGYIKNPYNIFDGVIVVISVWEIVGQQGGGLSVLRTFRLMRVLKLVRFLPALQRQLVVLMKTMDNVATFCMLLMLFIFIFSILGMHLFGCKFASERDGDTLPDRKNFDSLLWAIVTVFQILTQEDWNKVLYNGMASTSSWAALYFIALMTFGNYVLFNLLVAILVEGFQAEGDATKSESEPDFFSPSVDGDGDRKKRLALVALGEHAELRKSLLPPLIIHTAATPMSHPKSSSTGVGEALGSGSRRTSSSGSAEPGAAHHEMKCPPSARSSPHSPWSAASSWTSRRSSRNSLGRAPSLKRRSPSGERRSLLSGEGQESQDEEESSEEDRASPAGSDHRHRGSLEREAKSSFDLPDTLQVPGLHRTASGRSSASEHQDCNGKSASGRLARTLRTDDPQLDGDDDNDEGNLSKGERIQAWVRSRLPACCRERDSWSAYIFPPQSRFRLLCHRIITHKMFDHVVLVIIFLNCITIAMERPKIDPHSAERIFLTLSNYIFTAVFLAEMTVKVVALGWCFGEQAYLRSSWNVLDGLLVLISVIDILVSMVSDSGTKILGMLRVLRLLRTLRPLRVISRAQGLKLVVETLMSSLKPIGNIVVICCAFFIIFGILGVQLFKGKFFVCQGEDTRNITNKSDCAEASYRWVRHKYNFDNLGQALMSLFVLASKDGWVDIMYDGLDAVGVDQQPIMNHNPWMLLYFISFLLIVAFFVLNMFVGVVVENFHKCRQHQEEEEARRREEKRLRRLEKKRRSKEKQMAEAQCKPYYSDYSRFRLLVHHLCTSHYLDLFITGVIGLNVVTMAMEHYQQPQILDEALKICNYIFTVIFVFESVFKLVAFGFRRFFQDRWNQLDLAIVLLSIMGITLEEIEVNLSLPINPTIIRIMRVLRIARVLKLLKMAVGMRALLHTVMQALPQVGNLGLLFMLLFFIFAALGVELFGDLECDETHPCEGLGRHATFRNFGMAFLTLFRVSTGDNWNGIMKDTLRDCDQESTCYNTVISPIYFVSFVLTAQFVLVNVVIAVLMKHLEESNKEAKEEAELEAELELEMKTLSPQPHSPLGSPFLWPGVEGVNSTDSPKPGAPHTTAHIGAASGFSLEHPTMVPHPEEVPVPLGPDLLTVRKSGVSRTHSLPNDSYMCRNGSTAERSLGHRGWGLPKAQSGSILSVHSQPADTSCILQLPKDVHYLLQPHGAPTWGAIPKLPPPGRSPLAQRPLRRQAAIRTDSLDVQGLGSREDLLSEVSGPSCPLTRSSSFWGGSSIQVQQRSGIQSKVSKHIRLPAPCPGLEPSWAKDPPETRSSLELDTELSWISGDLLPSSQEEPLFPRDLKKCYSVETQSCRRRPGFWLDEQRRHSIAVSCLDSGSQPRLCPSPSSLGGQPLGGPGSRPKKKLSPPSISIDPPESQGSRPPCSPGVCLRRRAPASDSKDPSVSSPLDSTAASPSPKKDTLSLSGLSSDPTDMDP
Experimental: EPC-9 amplifier (HEKA, Germany) was used to determine the current of T-type calcium channel in a single cell level by electrophysiological whole-cell patch-clamp method. An extracellular solution for determining T-type calcium channel activity comprised NaCl 140 mM, CaCl2 2 mM and HEPES 10 mM (pH 7.4), whereas an intracellular solution comprised KCl 130 mM, HEPES 10 mM, EGTA 11 mM and MgATP 5 mM (pH 7.4).
The prepared intracellular solution was introduced into a microglass electrode of about 3–4 MΦ resistance. Then, the single cell was pricked with the electrode to fix the cell membrane voltage as about −100 mV in a whole-cell recording mode. Thereafter, the inward current was determined, in which the current was induced by T-type calcium channel activity when the hypopolarization was caused by about −30 mV (50 ms duration) approximately every 10 seconds.
Furthermore, the characteristics of the channel were analyzed by comparing with IC50 value for Ni^2+ and mibefradil, the conventionally known T-type calcium channel inhibitor. About 1 μM to 1 mM of Ni^2+ and about 0.1 to 10 μM of mibefradil were administered to the cell, respectively, according to the electrophysiological whole-cell patch-clamp method as described above, and then the inhibition (%) of the maximum of the inward current, caused through T-type calcium channel activated at or about −30 mV, was determined.

Structure (SMILES): [Ba+2] [Ba^2+]
inhibition of Kir2.1 current (maximum current at each voltage) [1]: inhibited in a concentration-dependent manner

Structure (SMILES): [Cs+] [Cs^+]
inhibition of Kir2.1 current (maximum current at each voltage) [1]: inhibited in a concentration-dependent manner

Structure (SMILES): [Cl-].[K+] [KCl]
calcium influx [2]: calcium influx is induced
calcium influx [3]: does not change calcium influx

Structure (SMILES): [Ni+2] [Ni^2+]
IC50 for inhibition of inward current through T-type calcium channel, Kir2.1+α1G HEK293 cell compared with α1G HEK293 cell [4]: not significantly different

IC50 for inhibition of inward current through T-type calcium channel, Kir2.1+α1G HEK293 cell compared with α1G HEK293 cell [4]: not significantly different
Structure (SMILES): COCC(=O)O[C@]1(CCN(C)CCCc2nc3ccccc3[nH]2)CCc2cc(F)ccc2[C@@H]1C(C)C [mibefradil]
